Read-outs that look alike come from different tables or passages of the source.

Experiment [1] addresses T1, Glucocorticoid Receptor (GR) (Homo sapiens, UniProt P04150).
T1 construct: purchased Invitrogen P2893
T1 sequence (P04150 1-777): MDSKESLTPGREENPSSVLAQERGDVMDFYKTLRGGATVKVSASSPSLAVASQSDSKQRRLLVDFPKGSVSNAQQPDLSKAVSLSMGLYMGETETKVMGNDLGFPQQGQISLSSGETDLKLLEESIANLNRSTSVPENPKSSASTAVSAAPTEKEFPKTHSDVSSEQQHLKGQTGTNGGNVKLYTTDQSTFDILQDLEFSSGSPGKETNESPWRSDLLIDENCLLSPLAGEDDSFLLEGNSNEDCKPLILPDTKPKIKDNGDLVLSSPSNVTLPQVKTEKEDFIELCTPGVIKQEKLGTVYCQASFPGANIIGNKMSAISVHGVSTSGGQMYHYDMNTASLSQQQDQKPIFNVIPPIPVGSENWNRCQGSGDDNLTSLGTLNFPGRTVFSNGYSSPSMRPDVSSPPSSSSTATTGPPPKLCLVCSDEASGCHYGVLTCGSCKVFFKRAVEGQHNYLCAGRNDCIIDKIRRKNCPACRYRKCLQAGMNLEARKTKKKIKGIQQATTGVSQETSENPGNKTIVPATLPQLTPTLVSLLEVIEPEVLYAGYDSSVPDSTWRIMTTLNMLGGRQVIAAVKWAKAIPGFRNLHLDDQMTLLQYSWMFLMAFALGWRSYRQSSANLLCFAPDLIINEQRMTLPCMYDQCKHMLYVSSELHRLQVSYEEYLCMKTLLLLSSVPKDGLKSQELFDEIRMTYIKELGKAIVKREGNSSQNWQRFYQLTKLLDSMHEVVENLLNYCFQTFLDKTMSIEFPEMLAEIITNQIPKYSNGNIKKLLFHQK
The experiment can be described thus: GR Fluorescence Polarization Assay (PolarScreen Glucocorticoid Receptor Competitor Assay, Red). Conditions: fluorescence polarization binding ranges. The protocol: Fluorescence polarization assays were carried out using the PolarScreen™ Glucocorticoid Receptor Competitor Assay, Red from Invitrogen (P2893). The assay buffer was prepared according to the manufacturer's protocol and used to dilute the fluorescent glucocorticoid and GR. Compounds were prepared and serial diluted 1:4 in DMSO. Compound, fluorescent glucocorticoid and GR were added in a final volume of 20 μL and incubated overnight at 4° C. Fluorescent polarization was measured on the PerkinElmer Envision®. Fluorescence polarization binding ranges measured using GR Fluorescence Polarization Assay: […]
A general note: Polarisation of emitted light reports the rotation of a fluorescent probe.

The test system of the next experiment is IL-6. The experiment can be described thus: A549 Cell Assay to Measure Inflammation Markers (inhibition of IL-1β-induced IL-6). The format is cell-based. The method, then:
A549 Cell Assay to Measure Inflammation Markers
A549 cells were seeded (3E4 cells/well) in 96-well assay plates in culture medium (100 μL/well., F-12 K base media, supplemented with 10% FBS and 100 μ/mL-100 μg/mL Pen-Strep.) After overnight culture in an incubator set to 37° C., 4.9% CO2, and 90% humidity, media was removed from adherent cells by aspiration and replaced with 100 μL/well Assay Medium (F-12 K base media supplemented with 5% charcoal stripped calf sera and 100 U/mL-100 μg/mL Pen-Strep.) Compounds were prepared in DMSO and serial diluted (1:3, 1:4, or 1:5) with DMSO in Dilution Plate(s) to give 10 dilution points for each compound tested. Further dilution (1:250) of compound was made into assay medium and 50 μL/well diluted drug or DMSO/media control was applied to cells. After a 1 h pre-incubation in a temperature, CO2, and humidity controlled incubator, set to 37° C., 50 μL/well of 4 ng/mL IL-1β diluted in assay media, was applied to cultures. Assay plates, with a final volume of 200 μL/well and final concentrations of 0.1% DMSO and 1 ng/mL IL-1β were returned to incubator for a four h incubation period. Next, plates were spun at 183 g (1000 rpm in Beckman/Coulter Allegra 6KR centrifuge) for 10 min. Cell-free supernatant (150 μL/well) was collected and IL-6 was measured by MSD kit, following protocol of manufacturer, and using MSD SECTOR Imager 6000 instrument. Potency of compounds to inhibit IL-6 was determined using the percent reduction of measured IL-6 in wells with compound compared to control wells without drug, and relative to (100% inhibition) positive control compound of 1 μM prednisolone. Results were represented as IC50 and Emax values. To verify that viable cell numbers were similar across plate(s), and not confounding compound IC50 data interpretation, the remaining 50 μL/well of cells and media (after removal of supernatant) were used to run Cell Titer-Glo Assay per directions of manufacturer.

Setting [2] is: A549 cells, read-out: A549 cell assay.
The mark [3] stands for this setting: Homo sapiens, A549 cells, read-out: A549 cell assay.

On to `CC#C[C@]1(O)CC[C@]2(CC)c3cc4cnn(-c5ccc(F)cc5)c4cc3CCC[C@H]2C1` [Example 112], for which the values for the IC50 (in experiment [1]; in the experiment with IL-6 (setting [2])) were 100 to 1000 nM and below 100 nM, respectively.
As for `CC[C@]12CC[C@@](O)(C(F)(F)F)[C@H](O)[C@H]1CCCc1cc3c(cnn3-c3ccc(F)cc3)cc12` (single isomer, unassigned) [Example 97], the IC50 (in experiment [1]; in the experiment on IL-6 (setting [3])) was below 100 nM throughout.
Take `C[C@]1(O)CC[C@]2(Cc3ccccn3)c3cc4cnn(-c5ccncc5)c4cc3CCC[C@@H]2C1` [Example 31]: the IC50 in experiment [1] was 100 to 1000 nM; with IL-6 (setting [2]), below 100 nM.
The corresponding values for `CC[C@@]12CC[C@](O)(COC)C[C@@H]1CCCc1cc3c(cnn3-c3ccc(F)cc3)cc12` [Example 35] are below 100 nM and below 100 nM.
Consider `CC[C@]12CC[C@](O)(C(F)(F)F)C[C@H]1CC=Cc1cc3c(cnn3-c3ccc(F)cc3)cc12` [Example 93, (3R,4aR,12bS)-12b-Ethyl-9-(4-fluorophenyl)-3-(trifluoromethyl)-1,2,3,4,4a,5,9,12b-octahydrobenzo[6,7]cyclohepta[1,2-f]indazol-3-ol], for which the IC50 was below 100 nM in experiment [1] and above 10000 nM with IL-6 (setting [3]).
As to `N#C[C@@]12CC[C@](O)(C(F)(F)F)C[C@H]1CCCc1cc3c(cnn3-c3ccc(F)cc3)cc12` (single isomer, unassigned) [Example 72], the values for the IC50 (in experiment [1]; with IL-6 (setting [3])) were below 100 nM and 100 to 1000 nM, respectively.
For `C[C@@]1(O)CC[C@@]2(Cc3ccccn3)c3cc4cnn(-c5ccc(F)cc5)c4nc3CCC[C@H]2C1` (single isomer, unassigned) [Example 149] the same measures were below 100 nM and below 100 nM.
Take `COC[C@@]1(O)CC[C@@]2(Cc3ccccn3)c3cc4cnn(-c5ccc(F)cc5)c4nc3CCC[C@@H]2C1` [Example 156]: the IC50 (in experiment [1]; with IL-6 (setting [2])) was below 100 nM each time.
On to `COC[C@@]1(O)CC[C@@]2(Cc3ccccn3)c3cc4cnn(-c5ccncc5)c4cc3CCC[C@H]2C1` [Example 49], for which the IC50 (in experiment [1]; in the experiment with IL-6 (setting [2])) was below 100 nM in each case.
With `CC[C@@]12C[C@H](O)[C@@](O)(C(F)(F)F)C[C@H]1CCCc1cc3c(cnn3-c3ccc(F)cc3)cc12` [Example 108, (2S,3R,4aR,12bR)-12b-Ethyl-9-(4-fluorophenyl)-3-(trifluoromethyl)-1,2,3,4,4a,5,6,7,9,12b-decahydrobenzo[6,7]cyclohepta[1,2-f]indazole-2,3-diol], the IC50 (in experiment [1]; in the experiment with IL-6 (setting [3])) was below 100 nM in each case.
For `N#CC[C@@]1(O)CC[C@@]2(Cc3ncccn3)c3cc4cnn(-c5ccc(F)cc5)c4nc3CCC[C@H]2C1` [Example 165], the IC50 (in experiment [1]; with IL-6 (setting [2])) was below 100 nM each time.
As for `N#CC[C@@]12CC[C@](O)(C(F)(F)F)C[C@H]1CCCc1cc3c(cnn3-c3ccc(F)cc3)cc12` (single isomer, unassigned) [Example 81], the IC50 was below 100 nM in experiment [1] and below 100 nM in the experiment on IL-6 (Homo sapiens, A549, read-out: A549 cell assay).
Consider `C[C@]1(O)CC[C@]2(Cc3ncccn3)c3cc4cnn(-c5ccc(F)cc5)c4nc3CCC[C@@H]2C1` [Example 162], for which the IC50 lay in the range of 100 to 1000 nM in experiment [1] and 1000 to 10000 nM in the experiment with IL-6 (setting [2]).
The corresponding values for `N#CC[C@]1(O)CC[C@]2(CC3CC3)c3cc4cnn(-c5ccc(F)cc5)c4cc3CCC[C@@H]2C1` [Example 66] are below 100 nM and below 100 nM.
The corresponding values for `CC[C@]1(O)CC[C@]2(CC)c3cc4cnn(-c5ccc(F)cc5)c4cc3CCC[C@H]2C1` [Example 114] are 100 to 1000 nM and 100 to 1000 nM.
As to `CC[C@]12CC[C@](O)(CN[C@H](C)c3ccccc3)C[C@@H]1CCCc1cc3c(cnn3-c3ccc(F)cc3)cc12` [Example 125, (3R,4aS,12bS)-12b-ethyl-9-(4-fluorophenyl)-3-((((R)-1-phenylethyl)amino)methyl)-1,2,3,4,4a,5,6,7,9,12b-decahydrobenzo[6,7]cyclohepta[1,2-f]indazol-3-ol], the IC50 is 100 to 1000 nM in experiment [1] and above 10000 nM with IL-6 (setting [3]).
The corresponding values for `CC[C@@]12CC[C@](O)(C(F)(F)F)C[C@H]1CCCc1c2cc2cnn(-c3ccc(F)cc3)c2c1Br` [Example 102, (3R,4aR,12bR)-8-Bromo-12b-ethyl-9-(4-fluorophenyl)-3-(trifluoromethyl)-1,2,3,4,4a,5,6,7,9,12b-decahydrobenzo[6,7]cyclohepta[1,2-f]indazol-3-ol] are below 100 nM and below 100 nM.
`CC[C@]12CC[C@](C)(O)C[C@H]1CCCc1cc3c(cnn3-c3ccc(F)cc3)cc12` [Example 53]: the IC50 (in experiment [1]; with IL-6 (setting [2])) was below 100 nM each time.
In the case of `N#CC[C@@]1(O)CC[C@@]2(Cc3ccccn3)c3cc4cnn(-c5ccc(F)cc5)c4nc3CCC[C@H]2C1` [Example 163], the IC50 (in experiment [1]; with IL-6 (setting [2])) was below 100 nM throughout.
As to `COC[C@@]1(O)CC[C@@]2(Cc3ncccn3)c3cc4cnn(-c5ccc(F)cc5)c4cc3CCC[C@H]2C1` [Example 41], the IC50 (in experiment [1]; with IL-6 (setting [2])) was below 100 nM in each case.
As for `CC[C@@]12CC[C@@](C)(O)C[C@@H]1CCOc1cc3c(cnn3-c3ccnc(C)c3)cc12` [Example 143], the IC50 (in experiment [1]; in the experiment with IL-6 (setting [3])) was below 100 nM throughout.
For `CC[C@@]12CC[C@](O)(CC#N)C[C@@H]1CCCc1cc3c(cnn3-c3ccc(F)cc3)cc12` [Example 65], the IC50 (in experiment [1]; with IL-6 (setting [2])) was below 100 nM each time.
On to `CC[C@@]12CC[C@](O)(COC)C[C@@H]1CCCc1cc3c(cnn3-c3cccnc3)cc12` [Example 44], for which the IC50 (in experiment [1]; in the experiment on IL-6 (setting [2])) was below 100 nM each time.
With `CCOC[C@@]1(O)CC[C@@]2(Cc3ccccn3)c3cc4cnn(-c5ccc(F)cc5)c4cc3CCC[C@H]2C1` [Example 32], the IC50 (in experiment [1]; in the experiment with IL-6 (setting [2])) was below 100 nM in each case.
With `C[C@@]1(O)CC[C@@]2(Cc3ncccn3)c3cc4cnn(-c5ccc(F)cc5)c4cc3CCC[C@H]2C1` [Example 55], the IC50 (in experiment [1]; in the experiment on IL-6 (setting [2])) was below 100 nM in each case.
On to `N#CC[C@@]1(O)CC[C@@]2(Cc3ccccn3)c3cc4cnn(-c5ccncc5)c4cc3CCC[C@H]2C1` [Example 68], for which the IC50 (in experiment [1]; in the experiment on IL-6 (setting [2])) was below 100 nM each time.
`CC[C@@]12CC[C@](O)(COC)C[C@@H]1CCOc1cc3c(cnn3-c3ccc(F)cc3)cc12` [Example 131]: the IC50 (in experiment [1]; in the experiment with IL-6 (setting [2])) was below 100 nM in each case.
`C[C@@]1(O)CC[C@@]2(Cc3ccccn3)c3cc4cnn(-c5ccc(F)cc5)c4cc3CCC[C@H]2C1` (single isomer, unassigned) [Example 15]: the IC50 (in experiment [1]; in the experiment on IL-6 (setting [3])) was below 100 nM in each case.
With `CC[C@@]12CC[C@](O)(C(F)(F)F)C[C@H]1CC[C@H](O)c1cc3c(cnn3-c3ccc(F)cc3)cc12` (single isomer, unassigned) [Example 104], the IC50 (in experiment [1]; in the experiment on IL-6 (setting [3])) was below 100 nM in each case.
As for `CC[C@@]1(O)CC[C@@]2(CC)c3cc4cnn(-c5ccc(F)cc5)c4cc3CCC[C@@H]2C1` [Example 113, (3R,4aR,12bR)-3,12b-Diethyl-9-(4-fluorophenyl)-1,2,3,4,4a,5,6,7,9,12b-decahydrobenzo[6,7]cyclohepta[1,2-f]indazol-3-ol], the IC50 (in experiment [1]; in the experiment on IL-6 (setting [3])) was below 100 nM each time.

Source of the values: US9193744B2, “Heterocyclic nuclear hormone receptor modulators” (AbbVie Inc., priority 2012, dated 2015).
